# Assays:
# His6-Scap(L1)-FLAG = molecular target: T1, His6-Scap(L1)-FLAG (Cricetulus griseus, UniProt P97260); assay: competition with [3H]cholesterol; type: binding; conditions: 150 nM [3H]cholesterol, 0.004% NP-40, 0.002% FC-13, 4 °C, 4 h
# T1 sequence (P97260 46-269): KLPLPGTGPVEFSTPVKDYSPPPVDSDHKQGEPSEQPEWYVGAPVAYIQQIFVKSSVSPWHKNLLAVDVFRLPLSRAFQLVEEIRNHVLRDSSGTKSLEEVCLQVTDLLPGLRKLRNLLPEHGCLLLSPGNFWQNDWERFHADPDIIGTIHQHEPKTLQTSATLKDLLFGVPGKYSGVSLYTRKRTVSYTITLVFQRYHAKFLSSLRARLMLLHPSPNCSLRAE
# His6-ALO (Anthrolysin O) = His6-ALO (Anthrolysin O) (Bacillus anthracis, UniProt A0A6L7HHW7); type: biochemical
# Chain of His6-ALO (Anthrolysin O) (A0A6L7HHW7 35-512 limits assumed): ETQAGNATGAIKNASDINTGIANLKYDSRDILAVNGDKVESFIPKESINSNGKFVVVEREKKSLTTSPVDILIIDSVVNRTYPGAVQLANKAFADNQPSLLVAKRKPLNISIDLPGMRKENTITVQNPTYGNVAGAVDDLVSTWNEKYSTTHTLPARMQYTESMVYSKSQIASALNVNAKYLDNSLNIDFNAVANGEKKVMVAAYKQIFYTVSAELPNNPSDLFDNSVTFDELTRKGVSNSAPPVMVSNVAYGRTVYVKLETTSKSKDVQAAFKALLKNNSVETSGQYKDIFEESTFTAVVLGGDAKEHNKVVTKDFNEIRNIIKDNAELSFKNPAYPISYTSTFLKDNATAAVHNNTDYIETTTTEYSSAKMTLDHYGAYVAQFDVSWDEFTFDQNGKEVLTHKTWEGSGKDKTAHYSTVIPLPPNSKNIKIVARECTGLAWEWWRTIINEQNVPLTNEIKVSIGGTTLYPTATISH
SMILES,competition with [3H]cholesterol (His6-Scap(L1)-FLAG; also labelled compound),inhibition of hemolysis of rabbit erythrocytes (His6-ALO (Anthrolysin O)),competition with [3H]cholesterol (His6-Scap(L1)-FLAG; competitive),"competition with [3H]cholesterol (His6-Scap(L1)-FLAG; competitive, cholesterol site)"
CC(C)CCC[C@@H](C)[C@H]1CC[C@H]2[C@@H]3CC=C4C[C@@H](O)CC[C@]4(C)[C@H]3CC[C@]12C [cholesterol],"As expected, both Scap and ALO bind cholesterol.","the sterol occupied the binding pocket, preventing ALO from binding to the membrane and inhibiting hemolysis",–,–
CC(C)=CCC[C@@H](C)[C@H]1CC[C@H]2[C@@H]3CC=C4C[C@@H](O)CC[C@]4(C)[C@H]3CC[C@]12C [desmosterol],–,"both Scap and ALO bind desmosterol, 25-fluorocholesterol, and β-sitosterol","both Scap and ALO bind desmosterol, 25-fluorocholesterol, and β-sitosterol",–
CC(C)CCC[C@@H](C)[C@H]1CC[C@H]2[C@@H]3CC[C@H]4C[C@@H](O)CC[C@]4(C)[C@H]3CC[C@]12C [dihydrocholesterol],–,–,"as well as dihydrocholesterol, where the double bond in the steroid nucleus is reduced",–
C[C@H](CCCC(C)(C)F)[C@H]1CC[C@H]2[C@@H]3CC=C4C[C@@H](O)CC[C@]4(C)[C@H]3CC[C@]12C [25-fluorocholesterol],–,"both Scap and ALO bind desmosterol, 25-fluorocholesterol, and β-sitosterol","both Scap and ALO bind desmosterol, 25-fluorocholesterol, and β-sitosterol",–
"CCOC(=O)c1ccc(NC(=O)Nc2ccc(-c3noc(C4CCC4)n3)cc2)cc1 [UT-59, ethyl 4-({[4-(5-cyclobutyl-1,2,4-oxadiazol-3-yl)anilino]carbonyl}amino) benzoate]",–,–,–,UT-59 competed with [^3H]cholesterol for binding to His6-Scap(L1)-FLAG to a similar degree as unlabeled cholesterol
CC[C@H](CC[C@@H](C)[C@H]1CC[C@H]2[C@@H]3CC=C4C[C@@H](O)CC[C@]4(C)[C@H]3CC[C@]12C)C(C)C [β-sitosterol],–,"both Scap and ALO bind desmosterol, 25-fluorocholesterol, and β-sitosterol","both Scap and ALO bind desmosterol, 25-fluorocholesterol, and β-sitosterol",–

# Source: article PMC10873635 (Proceedings of the National Academy of Sciences of the …, 2024)
